Values quoted from earlier work in patent US20200281958A1, “STABLE FORMULATIONS FOR THE ORAL ADMINISTRATION OF AMPHOTERICIN B AND RELATED METHODS” (priority 2015, published 2020).

Assays:
[1] = crystalline
[2] = test system: monocytic cell lines and primary macrophages/monocytes
[3] = test system: latently infected T cell lines

C[C@@H]1[C@H](O)[C@@H](C)/C=C/C=C/C=C/C=C/C=C/C=C/C=C/[C@H](O[C@@H]2O[C@H](C)[C@@H](O)[C@H](N)[C@@H]2O)C[C@@H]2O[C@](O)(C[C@@H](O)C[C@@H](O)[C@H](O)CC[C@@H](O)C[C@@H](O)CC(=O)O[C@H]1C)C[C@H](O)[C@H]2C(=O)O (relative stereo) [amphotericin B, [1R-(1R*,3S*,5R*,6R*,9R*,11R*,15S*,16R*,17R*,18S*,19E,21E,23E,25E, 27E,29E,31 E,33R*,35S*,36R*,37S)]-33-[(3-amino-3,6-dideoxy-β-D-mannopyranosyl)oxy] 1,3,5,6,9,11, 17,37-octahydroxy-15,16,18-trimethyl-13-oxo-14,39-dioxabicyclo-[33.3.1] nonatriaconta-19,21, 23,25,27,29,3 1-heptaene-36-carboxylic acid]
solubility in water [1]: insoluble in water
reactivation of HIV-1 replication [2]: reactivate HIV-1 replication
direct reactivation of latently infected T cell lines ([3]; T cell lines alone): did not directly reactivate
HIV-1 reactivation in T cell lines ([3]; co-culture with primary macrophages): partial HIV-1 reactivation
